Source: patent US20250163038A1, “CBL-B MODULATORS AND USES THEREOF” (Nimbus Clio, Inc., priority 2021, published 2025)
Where two headings read alike, the source gives them in different places.

Assays:
[1] = molecular target: T1, Recombinant human c-Cbl (aa 47-435) (Homo sapiens, UniProt P22681); assay: c-Cbl Biochemical Assay (TR-FRET)
T1 sequence (P22681 47-435): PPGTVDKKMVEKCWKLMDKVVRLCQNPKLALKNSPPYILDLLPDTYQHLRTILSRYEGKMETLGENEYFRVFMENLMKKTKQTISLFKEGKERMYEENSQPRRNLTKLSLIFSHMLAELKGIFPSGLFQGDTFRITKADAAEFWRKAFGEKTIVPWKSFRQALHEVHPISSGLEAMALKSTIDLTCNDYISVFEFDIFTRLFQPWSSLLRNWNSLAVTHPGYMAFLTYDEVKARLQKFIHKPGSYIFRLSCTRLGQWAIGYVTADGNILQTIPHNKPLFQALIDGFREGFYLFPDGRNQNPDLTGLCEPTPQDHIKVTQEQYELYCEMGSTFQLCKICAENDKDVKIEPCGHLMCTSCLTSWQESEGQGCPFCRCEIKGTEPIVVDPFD

[2] = system: Jurkat (clone E6-1) cells with NFAT luciferase reporter; assay: Jurkat reporter assay (NFAT Luciferase); type: cell-based; settings: Homo sapiens
[3] = molecular target: Recombinant human Cbl-b (aa 36-427) (Homo sapiens, UniProt Q13191); assay: Cbl-b Biochemical Assay (TR-FRET)
Sequence of Recombinant human Cbl-b (aa 36-427) (Q13191 36-427): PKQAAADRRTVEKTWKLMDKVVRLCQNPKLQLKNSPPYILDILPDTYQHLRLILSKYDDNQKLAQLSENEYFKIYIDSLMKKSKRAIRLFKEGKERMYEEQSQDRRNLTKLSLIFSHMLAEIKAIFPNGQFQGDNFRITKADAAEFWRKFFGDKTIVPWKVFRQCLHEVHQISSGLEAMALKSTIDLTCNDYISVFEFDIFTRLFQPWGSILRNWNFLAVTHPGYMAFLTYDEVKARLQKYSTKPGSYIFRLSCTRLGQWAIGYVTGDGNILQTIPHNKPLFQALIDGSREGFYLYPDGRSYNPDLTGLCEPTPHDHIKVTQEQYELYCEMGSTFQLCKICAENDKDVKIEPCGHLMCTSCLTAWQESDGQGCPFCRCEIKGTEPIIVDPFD

[4] = hc-Cbl Biochemical Assay (TR-FRET), read-out: TR-FRET hcCbl IC50
[5] = Jurkat NFAT luciferase reporter cells, anti-CD3 stimulation, 6 hr, read-out: Jurkat NFAT EC50

SMILES | IC50 [1, 4] | EC50 [2, 5] | IC50 ([3]; read-out: TR-FRET hCbl-b IC50) | EC50 ([2]; Jurkat, 6 h, read-out: Jurkat NFAT EC50 (μM)) | IC50 [1] | IC50 [3]
COCCNCc1cc(C(F)(F)F)c2oc(-c3cccc(-c4ccc(F)cc4-c4nncn4C)c3)nc2c1 [AA-2, N-((2-(4′-Fluoro-2′-(4-methyl-4H-1,2,4-triazol-3-yl)-[1,1′-biphenyl]-3-yl)-7-(trifluoromethyl)benzo[d]oxazol-5-yl)methyl)-2-methoxyethan-1-amine] | 1000 to 10000 nM | 0.2 to 1 µM | < 200 nM | – | – | –
COC[C@H](C)NCc1cc(C)c2oc(-c3cc(-c4ccc(F)cc4-c4nncn4C)cc(C4CC4)n3)nc2c1 [AGK-1, [(2-{6-Cyclopropyl-4-[4-fluoro-2-(4-methyl-1,2,4-triazol-3-yl)phenyl]pyridin-2-yl}-7-methyl-1,3-benzoxazol-5-yl)methyl][(2S)-1-methoxypropan-2-yl]amine] | < 200 nM | < 0.2 µM | < 200 nM | – | – | –
COC1(CN[C@@H](C)c2cc(F)c3oc(-c4cc(-c5ccc(F)cc5-c5nncn5C)cc(C5CC5)n4)nc3c2)CCC1 [AFS-2, [(1S)-1-(2-{6-Cyclopropyl-4-[4-fluoro-2-(4-methyl-1,2,4-triazol-3-yl)phenyl]pyridin-2-yl}-7-fluoro-1,3-benzoxazol-5-yl)ethyl][(1-methoxycyclobutyl)methyl]amine] | < 200 nM | 0.2 to 1 µM | < 200 nM | – | – | –
Cn1cnnc1-c1cc(F)ccc1-c1cccc(-c2nc3cc(NCCC4CCCC4)cc(C(F)(F)F)c3o2)c1 [HM-3, N-(2-Cyclopentylethyl)-2-(4′-fluoro-2′-(4-methyl-4H-1,2,4-triazol-3-yl)-[1,1′-biphenyl]-3-yl)-7-(trifluoromethyl)benzo[d]oxazol-5-amine] | 1000 to 10000 nM | 1 to 10 µM | 1000 to 10000 nM | – | – | –
Cn1cnnc1[C@]1(c2cccc(-c3nc4cc(CNCC5CCC5)cc(C(F)(F)F)c4o3)c2)C[C@H](C)C1 [ADZ-1, (Cyclobutylmethyl)[(2-{3-[(1r,3s)-3-methyl-1-(4-methyl-1,2,4-triazol-3-yl)cyclobutyl]phenyl}-7-(trifluoromethyl)-1,3-benzoxazol-5-yl)methyl]amine] | < 200 nM | 0.2 to 1 µM | < 200 nM | – | – | –
Cn1cnnc1-c1cc(F)ccc1-c1cccc(-c2nc3cc(CN[C@@H]4CC[C@@H]4O)cc(C(F)(F)F)c3o2)c1 [DU-2, (1S,2R)-2-(((2-(4′-Fluoro-2′-(4-methyl-4H-1,2,4-triazol-3-yl)-[1,1′-biphenyl]-3-yl)-7-(trifluoromethyl)benzo[d]oxazol-5-yl)methyl)amino)cyclobutan-1-ol] | < 200 nM | < 0.2 µM | < 200 nM | – | – | –
Cn1cnnc1-c1cc(F)ccc1-c1cccc(-c2nc3cc(CNCC4COC4)c(F)c(F)c3o2)c1 [JE-1, 1-(6,7-Difluoro-2-(4′-fluoro-2′-(4-methyl-4H-1,2,4-triazol-3-yl)-[1,1′-biphenyl]-3-yl)benzo[d]oxazol-5-yl)-N-(oxetan-3-ylmethyl)methanamine] | 200 to 1000 nM | < 0.2 µM | < 200 nM | – | – | –
Cn1cnnc1-c1cc(F)ccc1-c1cccc(-c2nc3cc(CNCC(O)(C(F)(F)F)C(F)(F)F)cc(C(F)(F)F)c3o2)c1 [CZ-2, 1,1,1,3,3,3-Hexafluoro-2-((((2-(4′-fluoro-2′-(4-methyl-4H-1,2,4-triazol-3-yl)-[1,1′-biphenyl]-3-yl)-7-(trifluoromethyl)benzo[d]oxazol-5-yl)methyl)amino)methyl)propan-2-ol] | < 200 nM | 0.2 to 1 µM | < 200 nM | – | – | –
Cn1cnnc1-c1cc(Cl)ccc1-c1cccc(-c2nc3cc(CN[C@@H]4CCC[C@@H]4O)cc(C(F)(F)F)c3[nH]2)c1 [ADB-9, (1S,2R)-2-(((2-(4′-Chloro-2′-(4-methyl-4H-1,2,4-triazol-3-yl)-[1,1′-biphenyl]-3-yl)-7-(trifluoromethyl)-1H-benzo[d]imidazol-5-yl)methyl)amino)cyclopentan-1-ol] | < 200 nM | < 0.2 µM | < 200 nM | – | – | –
Cn1cnnc1-c1cc(F)ccc1-c1cccc(-c2nc3cc(CN[C@@H]4CCC[C@@]4(O)C(F)(F)F)cc(C(F)(F)F)c3o2)c1 [JI-3, (1S,2R)-2-(((2-(4′-Fluoro-2′-(4-methyl-4H-1,2,4-triazol-3-yl)-[1,1′-biphenyl]-3-yl)-7-(trifluoromethyl)benzo[d]oxazol-5-yl)methyl)amino)-1-(trifluoromethyl)cyclopentan-1-ol] | < 200 nM | < 0.2 µM | < 200 nM | – | – | –
Cn1cnnc1-c1cc(F)ccc1-c1cccc(-c2nc3cc(CN[C@@H]4CCC[C@@H]4O)cc(Cl)c3o2)c1 [HG-7, (1S,2R)-2-(((7-Chloro-2-(4′-fluoro-2′-(4-methyl-4H-1,2,4-triazol-3-yl)-[1,1′-biphenyl]-3-yl)benzo[d]oxazol-5-yl)methyl)amino)cyclopentan-1-ol] | < 200 nM | – | < 200 nM | < 0.2 µM | – | –
Cn1cnnc1-c1cc(F)ccc1-c1cccc(-c2nc3cc(CNC[C@H]4CCCO4)cc(C(F)(F)F)c3o2)c1 [EU-2, (R)-1-(2-(4′-Fluoro-2′-(4-methyl-4H-1,2,4-triazol-3-yl)-[1,1′-biphenyl]-3-yl)-7-(trifluoromethyl)benzo[d]oxazol-5-yl)-N-((tetrahydrofuran-2-yl)methyl)methanamine] | < 200 nM | < 0.2 µM | < 200 nM | – | – | –
Cc1cc([C@H](C)NCC2CCC2)cc2nc(-c3cc(-c4ccc(F)cc4-c4nncn4C)cc(C4CC4)n3)oc12 [AGX-1, (cyclobutylmethyl)[(1S)-1-(2-{6-cyclopropyl-4-[4-fluoro-2-(4-methyl-1,2,4-triazol-3-yl)phenyl]pyridin-2-yl}-7-methyl-1,3-benzoxazol-5-yl)ethyl]amine] | < 200 nM | < 0.2 µM | < 200 nM | – | – | –
Cn1cnnc1-c1cc(F)ccc1-c1cccc(-c2nc3cc(CNC4CCC4)cc(C(F)(F)F)c3o2)c1 [GC-2, N-((2-(4′-Fluoro-2′-(4-methyl-4H-1,2,4-triazol-3-yl)-[1,1′-biphenyl]-3-yl)-7-(trifluoromethyl)benzo[d]oxazol-5-yl)methyl)cyclobutanamine] | < 200 nM | < 0.2 µM | < 200 nM | – | – | –
C[C@@H]1CN(Cc2cc(C(F)(F)F)c3oc(-c4cccc(-c5ccc(F)cc5-c5nncn5C)c4)nc3c2)CCO1 [Example V-1, (R)-2-(4′-Fluoro-2′-(4-methyl-4H-1,2,4-triazol-3-yl)-[1,1′-biphenyl]-3-yl)-5-((2-methylmorpholino)methyl)-7-(trifluoromethyl)benzo[d]oxazole] | 1000 to 10000 nM | 1 to 10 µM | < 200 nM | – | – | –
Cn1cnnc1-c1cc(F)ccc1-c1cc(-c2nc3cc(CN[C@@H]4CCC[C@@]4(C)O)cc(F)c3o2)nc(C2CC2)c1 [AFM-1, (1R,2R)-2-(((2-(6-Cyclopropyl-4-(4-fluoro-2-(4-methyl-4H-1,2,4-triazol-3-yl)phenyl)pyridin-2-yl)-7-fluorobenzo[d]oxazol-5-yl)methyl)amino)-1-methylcyclopentan-1-ol] | – | 1 to 10 µM | – | – | 200 to 1000 nM | < 200 nM
COc1cccc2oc(-c3cccc(-c4ccc(F)cc4-c4nncn4C)c3)nc12 [FH-2, 2-(4′-Fluoro-2′-(4-methyl-4H-1,2,4-triazol-3-yl)-[1,1′-biphenyl]-3-yl)-4-methoxybenzo[d]oxazole] | 1000 to 10000 nM | 10 to 50 µM | 1000 to 10000 nM | – | – | –
Cn1cnnc1-c1cc(F)ccc1-c1cccc(-c2nc3cc(CN[C@@H]4CCC[C@@H]4O)ccc3s2)c1 [ET-8, (1S,2R)-2-(((2-(4′-Fluoro-2′-(4-methyl-4H-1,2,4-triazol-3-yl)-[1,1′-biphenyl]-3-yl)benzo[d]thiazol-5-yl)methyl)amino)cyclopentan-1-ol] | < 200 nM | 0.2 to 1 µM | < 200 nM | – | – | –
Cn1cnnc1-c1cc(F)ccc1-c1cccc(-c2nc3cc(CNCC4(O)CCC4)cc(C(F)(F)F)c3o2)c1 [Example Y-3, 1-((((2-(4′-Fluoro-2′-(4-methyl-4H-1,2,4-triazol-3-yl)-[1,1′-biphenyl]-3-yl)-7-(trifluoromethyl)benzo[d]oxazol-5-yl)methyl)amino)methyl)cyclobutan-1-ol] | 1000 to 10000 nM | 0.2 to 1 µM | < 200 nM | – | – | –
Cn1cnnc1-c1cc(F)ccc1-c1cc(-c2nc3cc(CN[C@@H]4CCC[C@@H]4O)ccc3o2)nc(C2CC2)c1 [AEH-2, (1S,2R)-2-{[(2-{6-Cyclopropyl-4-[4-fluoro-2-(4-methyl-1,2,4-triazol-3-yl)phenyl]pyridin-2-yl}-1,3-benzoxazol-5-yl)methyl]amino}cyclopentan-1-ol] | < 200 nM | < 0.2 µM | < 200 nM | – | – | –
Cn1cnnc1-c1cc(F)ccc1-c1cccc(-c2nc3cc(CO)cc(C4CC4)c3o2)c1 [ES-4, (7-Cyclopropyl-2-(4′-fluoro-2′-(4-methyl-4H-1,2,4-triazol-3-yl)-[1,1′-biphenyl]-3-yl)benzo[d]oxazol-5-yl)methanol] | 200 to 1000 nM | 1 to 10 µM | < 200 nM | – | – | –
Cc1cc(CN[C@@H]2CCC[C@@H]2O)cc2nc(-c3cccc(-c4ccc(F)cc4-c4nncn4C)c3)oc12 [FG-2, (1S,2R)-2-(((2-(4′-Fluoro-2′-(4-methyl-4H-1,2,4-triazol-3-yl)-[1,1′-biphenyl]-3-yl)-7-methylbenzo[d]oxazol-5-yl)methyl)amino)cyclopentan-1-ol] | < 200 nM | < 0.2 µM | < 200 nM | – | – | –
